The values below are quoted from earlier work in patent US20210128676A1, “METHOD OF TREATING PATIENTS WITH H[…] TYPE 1 AND LOW MEAN ARTERIAL PRESSURE” (Mallinckrodt Hospital Products IP Unlimited Company, priority 2019, published 2021).

As usually defined, the half-life is how long it takes for the measured level to halve.

Positions of bridges follow the written chain, without caps; N, C: chain ends. Residues, ends and D or L forms follow the SMILES beside them.

The conditions of this data set: in vivo.

With `NCCCC[C@H](NC(=O)[C@@H]1CCCN1C(=O)[C@@H]1CSSC[C@H](NC(=O)CNC(=O)CNC(=O)CN)C(=O)N[C@@H](Cc2ccc(O)cc2)C(=O)N[C@@H](Cc2ccccc2)C(=O)N[C@@H](CCC(N)=O)C(=O)N[C@@H](CC(N)=O)C(=O)N1)C(=O)NCC(N)=O` [Terlipressin, N—[N—(N-glycylglycyl)glycyl]-8-L-lysinevasopressin] (H-GGGCYFQNCPKG-NH2; disulfide 4-9 (inferred)), the half-life was 6 h.

As for `NC(=O)CC[C@@H]1NC(=O)[C@H](Cc2ccccc2)NC(=O)[C@H](Cc2ccc(O)cc2)NC(=O)[C@@H](N)CSSC[C@@H](C(=O)N2CCC[C@H]2C(=O)N[C@@H](CCCN=C(N)N)C(=O)NCC(N)=O)NC(=O)[C@H](CC(N)=O)NC1=O` [vasopressin], the duration of action is 30 to 60 min and the half-life is 0.1 h.
